# Reference: patent US20150374779A1, “PHARMACOLOGIC TREATMENTS OF MENIÉRE'S DISEASE” (priority 2014, published 2015)
# Where no end group is shown, it is not given here. [ ]: non-standard residue; d: D form.
# Key:
# KOS strain of HSV-1 [1] = assay: single cycle herpes simplex virus infection assay (virus yield), fetal rat cortex neurons; format: cell-based; conditions: for Pfu/culture: MOI 5, harvest 20 h postinfection, DMSO 1.33 × 10^6
# Experimental: (§1) A single cycle herpes simplex virus infection assay was performed to determine the effect of JNK inhibitors on virus yield.
# (§2) To prepare a 1 mM stock solution, 5.15 mg of D-JNKI-1 acetate was suspended in 1 ml of water, vortexed for 2 minutes, and sterilized by passage through a PES filter; 50 μL aliquots were prepared and stored at −20° C.
# (§3) Human neuroblastoma cells (SH-SY5Y) were maintained in DMEM plus 10% fetal calf serum, 1 mM HEPES (Gibco) and 2 μg/ml gentamicin (Gibco). For differentiation, monolayers of cells were rinsed in PBS and then maintained in Neurobasal medium (Gibco) plus 2% B27 supplement and […] all-trans retinoic acid (ATRA). Primary fetal rat cortex cells were maintained in Neurobasal medium plus 2% B27, 2 mM glutamine and […] gentamicin.
# (§4) Monolayers of SH-SY5Y human neuroblastoma cells differentiated by treatment with ATRA, or fetal rat cortex neurons were pre-treated with 10-20 μM D-JNKI-1, 40 μM SP600125 (Calbiochem), or DMSO (D2650, Sigma-Aldrich) vehicle control for 30 minutes prior to infection. Monolayers were infected with the KOS strain of HSV-1 at a multiplicity of infection (MOI) of 5 for 60 minutes under conditions of pre-treatment. Following the inoculation period, monolayers were incubated under pre-treatment conditions and harvested at 20 hours postinfection.
# (§5) Cells and media were collected, and subjected to three rounds of freezing and thawing. Serial ten-fold dilutions were prepared and aliquots seeded in triplicate onto monolayers of Vero cells. Following a 60-minutes infection period, the inoculum was removed and replaced with medium containing 0.3% methyl cellulose. After 3 days, the overlay was removed and the cell monolayer stained with 0.8% crystal violet in 50% ethanol and plaques counted to determine virus yield. Results were presented as % of yield relative to control conditions (DMSO vehicle treatment).
# KOS strain of HSV-1 [2] = assay: single cycle herpes simplex virus infection assay (virus yield), ATRA-differentiated SH-SY5Y human neuroblastoma cells; format: cell-based; conditions: for activity at 40 µM: Human alphaherpesvirus 1, Neuroblastoma cell; for virus yield, % of control: DMSO = 100
# Experimental: as §1, §2, §3, §4, §5
# ASNHL-related tinnitus = assay: double-blind, randomized, placebo-controlled phase II study of AM-111 in ASNHL and associated tinnitus; format: in vivo, human; conditions: for Complete ASNHL-Related Tinnitus Remission in the Treated Ear, Frequency (%): mITT; for Number of Subjects with Tinnitus/Number of Subjects with Observation (%): Day 90, placebo 28/50 (56.0)
# Experimental: A double-blind, randomized, placebo-controlled phase II study was conducted to evaluate the efficacy and safety of AM-111 in treating ASNHL and associated tinnitus. Eligible participants were aged 18 to 60 years and suffered from ASNHL (unilateral idiopathic sudden sensorineural hearing loss (ISSNHL), uni- or bilateral acute acoustic trauma (AAT)) with hearing loss of at least 30 dB and onset not more than 48 hours previously. The hearing loss was determined against a reference value: mean hearing threshold at the 3 most affected contiguous test frequencies (pure tone average, PTA) less corresponding mean hearing threshold of the contralateral ear (Plontke et al., 2007). In case of previously asymmetric hearing or bilateral ASNHL, thresholds from a previous audiogram or ISO-7029; 2000 norm values served as reference. The PTA frequencies determined at baseline remained fixed for all evaluations.
# Exclusion criteria included history of Meniére's disease, autoimmune or radiation induced hearing […] loss, endolymphatic hydrops or fluctuating hearing loss, suspected perilymph fistula, membrane rupture or retrocochlear lesion, barotrauma, air-bone gap >20 dB in 3 contiguous frequencies, previous ASNHL incident within the past 6 weeks, and acute or chronic otitis media or otitis externa. Women who were breast feeding, pregnant or who planned a pregnancy during the study, or women of childbearing potential who declared being unwilling or unable to practice an effective method of […] contraception were excluded. Written informed consent was obtained from each patient prior to the performance of any study-specific procedures.
# At baseline (Day 0), study participants were randomized to receive AM-111 (0.4 or 2.0 mg/mL) or placebo at a 2:1 ratio. The study consisted of a baseline assessment and 4 follow-up visits on Days 3, 7, 30, and 90. Baseline assessments included a general physical examination, vital signs, and a urine pregnancy test for women of childbearing age. At each study visit pure tone hearing thresholds, speech discrimination at 60 and 80 dB, and subjective tinnitus loudness were determined. Those patients reporting tinnitus were asked to rate its loudness “right now” on a numerical scale ranging from 0 (no tinnitus) to 10 (extremely loud).
# Approximately 0.25 mL of the study drug was administered on Day 0 by intratympanic (i.t.) injection under local anesthesia through a small myringotomy with the patient's head placed in a position tilted 45° towards the unaffected ear. Patients remained in their reclined or supine position for approximately 30 minutes to allow for diffusion of the active substance into the cochlea. In case of bilateral AAT, only the worst affected ear was treated. Subjects whose PTA recovered <10 dB from baseline to Day 7 were given the option to receive oral prednisolone 50 mg (Ratiopharm, Ulm, Germany) b.i.d. for 5 days.
# The sample size was determined based on an expected effect size of 0.6, a two-sided type I error rate of 5% and a statistical power of 80%.
# Efficacy analyses were primarily performed on a modified “Intention to treat” (mITT) analysis set (treated patients with PTA measured on Day 3±1 or Day 7+4 days at most) and secondarily on the “Per Protocol” (PP) analysis set. The “Safety Population” analysis set included all patients who received an injection of the study medication. Random imputation was performed for missing PTA values at Days 7 and 30, and missing speech discrimination score (SDS) values at Day 7 based on the preceding value and the mean change observed in the respective treatment group (mITT set).
# For continuous efficacy endpoints, analysis of covariance (ANCOVA) models were used including treatment group and initial frequency range as class effects, and baseline values of the respective endpoint as covariate. For the complete recovery rate, a logistic regression model was applied including treatment, initial frequency range, and baseline hearing loss as predictor variables. […]
# [3] = tested on: models of cochlear insult; conditions: acute noise trauma, acute labyrinthitis, aminoglycoside ototoxicity, bacterial infection, cochlear ischemia, cochlear implantation trauma; cited from earlier work
# wild type HSV-1 (KOS) = assay: Western blot assay of accumulation of HSV-1 viral proteins (IE, E, L classes) in SH-SY5Y cells and rat fetal cortex neurons; format: cell-based; conditions: 10 μM; both SH-SY5Y cells and fetal cortex neurons; 8 h post infection
# Experimental: Cell monolayers were pretreated either with DMSO (DM, vehicle control), or the JNK inhibitors D-JNKI-1 (AM, 10 μM) or SP600125 (SP, 40 μM), then infected in the presence of drug for 60 minutes and finally in the presence of drug until the time of harvest, 8 hours post infection. Western blot for tubulin served as a loading control.
# The ability of JNK inhibitors to affect accumulation of viral proteins representative of the immediate-early (IE), early (E) or late (L) kinetic classes was evaluated by a Western blot assay.
# Unless indicated otherwise, the same materials and methods were applied as for the experiment described under Example 1 and as laid out by Hargett et al., 2005.
# Replicate monolayers of rat fetal cortex neurons or ATRA-differentiated SH-SY5Y cells were pre-treated with DMSO, D-JNKI-1 (10 μM) or […] (40 μM) for 30 minutes, and then infected with wild type HSV-1 (KOS) or ICP27 null mutant d27 at a multiplicity of infection (MOI) of 5, or mock-infected under pre-treatment conditions for 60 minutes. The inoculum was removed and incubation continued under the pretreatment conditions until the time of harvest. Whole cell lysates were prepared at 8 h post infection. Aliquots of lysates were separated on 12% gels by standard polyacrylamide gel electrophoresis (SDS-PAGE) procedures. […]
# reovirus T3D = conditions: cited from earlier work
compound,measurement,setting,value
"Oc1c2ccccc2c2c3c(cccc13)N=N2 [SP600125, reference compound]",Pfu/culture,"KOS strain of HSV-1 [1]; 40 μM, fetal rat neurons",8.0 × 10^5 Pfu/culture
same,activity at 40 µM,"KOS strain of HSV-1 [1]; Human alphaherpesvirus 1, Neuron, 40 μM, fetal rat neurons, DMSO = 100, read-out: virus yield, % of control",60%
same,Pfu/culture,"KOS strain of HSV-1 [2]; First experiment, 40 μM, MOI 5, harvest 20 h postinfection, DMSO 3.5 × 10^5",2.57 × 10^5 Pfu/culture
same,activity at 40 µM,"KOS strain of HSV-1 [2]; read-out: virus yield, % of control, First experiment, 40 μM, DMSO = 100",72%
same,activity at 40 µM,"KOS strain of HSV-1 [2]; read-out: virus yield, % of control, Second experiment, 40 μM, DMSO = 100",20%
same,Pfu/culture,"KOS strain of HSV-1 [2]; Second experiment, 40 μM, DMSO 8.5 × 10^5",1.76 × 10^5 Pfu/culture
"DQSRPVQPFLNLTTPRKPRPPRRRQRRKKRG (SEQ ID NO: 2) ([dD][dQ][dS][dR][dP][dV][dQ][dP][dF][dL][dN][dL][dT][dT][dP][dR][dK][dP][dR][dP][dP][dR][dR][dR][dQ][dR][dR][dK][dK][dR]G) [AM-111, 31-amino acid cell-permeable peptide, formulated in a biocompatible hyaluronic acid gel]","Complete ASNHL-Related Tinnitus Remission in the Treated Ear, Frequency (%)","ASNHL-related tinnitus; All Subjects, 0.4 mg/mL, N = 50, Time point: Overall (90 days), placebo 28 (54.9%), p 0.151",35 (70.0%)
same,"Complete ASNHL-Related Tinnitus Remission in the Treated Ear, Frequency (%)","ASNHL-related tinnitus; All Subjects, 2.0 mg/mL, N = 56, Overall, placebo 28 (54.9%), p 1.000",31 (55.4%)
same,Number of Subjects with Tinnitus/Number of Subjects with Observation (%),ASNHL-related tinnitus; 0.4 mg/mL i.t.,38.0%
same,Number of Subjects with Tinnitus/Number of Subjects with Observation (%),ASNHL-related tinnitus; 2.0 mg/mL i.t.,51.9%
same,"Complete ASNHL-Related Tinnitus Remission in the Treated Ear, Frequency (%)","ASNHL-related tinnitus; Mild to Moderate Subgroup, 0.4 mg/mL, N = 25, Overall, placebo 22 (78.6%), p 0.732",21 (84.0%)
same,"Complete ASNHL-Related Tinnitus Remission in the Treated Ear, Frequency (%)","ASNHL-related tinnitus; Mild to Moderate Subgroup, 2.0 mg/mL, N = 27, Overall, placebo 22 (78.6%), p 0.245",17 (63.0%)
same,"complete tinnitus remission, difference between AM-111 treatment groups and placebo","ASNHL-related tinnitus; subgroup mild to moderate hearing loss, 0.4 and 2.0 mg/mL",no statistically significant differences
same,otoprotection,[3],otoprotective
DQSRPVQPFLNLTTPRKPRPPRRRQRRKKRG (SEQ ID NO: 2) (not fully specified (some residues); also: D-amino acids (positions not given here)) [D-JNKI-1],L (gC and Us11) protein accumulation,wild type HSV-1 (KOS),severe reduction
same,accumulation of IE (ICP27) and E (ICP8) proteins,wild type HSV-1 (KOS),moderate reductions
same,"virus yield, % of control","KOS strain of HSV-1 [1]; 10 μM, fetal rat neurons, DMSO = 100",12%
same,Pfu/culture,"KOS strain of HSV-1 [1]; 10 μM, fetal rat neurons",1.67 × 10^5 Pfu/culture
same,virus yield (in words),KOS strain of HSV-1 [1]; rat cortex neurons,substantially reduced
same,survival of intracerebrally infected mice,reovirus T3D; otherwise lethal challenge with T3D (100×50% lethal dose),significantly prolonged survival
same,CNS injury,reovirus T3D; reovirus-infected mice,reduced CNS injury
same,c-Jun activation,reovirus T3D; reovirus-infected mice,reduced c-Jun activation
same,neuronal apoptosis,reovirus T3D; reovirus-infected mice,reduced neuronal apoptosis
same,viral titer or viral antigen distribution,reovirus T3D; reovirus-infected mice,without altering
same,virus yield (in words),KOS strain of HSV-1 [2],substantially reduced
same,"virus yield, % of control","KOS strain of HSV-1 [2]; First experiment, 10 μM",37%
same,Pfu/culture,"KOS strain of HSV-1 [2]; First experiment, 10 μM, MOI 5, harvest 20 h postinfection, DMSO 3.5 × 10^5",1.27 × 10^5 Pfu/culture
same,Pfu/culture,"KOS strain of HSV-1 [2]; Second experiment, 10 μM, DMSO 8.5 × 10^5",2.23 × 10^5 Pfu/culture
same,"virus yield, % of control","KOS strain of HSV-1 [2]; Second experiment, 10 μM",26%
same,Pfu/culture,"KOS strain of HSV-1 [2]; Second experiment, 20 μM, DMSO 8.5 × 10^5",2.06 × 10^5 Pfu/culture
same,"virus yield, % of control","KOS strain of HSV-1 [2]; Second experiment, 20 μM",24%
